Measurements taken from EP4458358A1, “PYRIDAZINE COMPOUNDS FOR ANTIFIBROTIC THERAPY” (Tietze Chemical Consulting UG, priority 2023, dated 2024).

Legend:
Format in all cases: cell-based
GM637 = assay: ELISA of secreted pro-collagen I alpha 1 (Type I Collagen) from human dermal fibroblasts GM637
Description: (§1) Compounds reconstitution and stock solution: Prior to treatment, DMSO was diluted in PMS until 0,1% DMSO was made. Each compound was solved in 0,1% DMSO (3: 2,5 mg/mL, 1: 2.5 mg/mL, 10: 1 mg/mL, 5: 1mg/mL, 7: 0,6 mg/mL, 16: 1 mg/mL 17: 1 mg/mL, 44: 0,6 mg/mL, 36: 1mg/mL.
(§2) Next the different stock solution with 150 µg and 250 µg of each compound per 1 ml culture solution was made by adding the 0,1% DMSO compound solution in the right amount to culture solution (DMEM with 10% FCS and 1% penicillin-streptomycin).
(§3) Three different cell lines were used for the experiments. GM637 is an immortalized cell line originated from human skin fibroblasts, bought in 2001, UKE1 and […] are cell lines originated from human dermal fibroblasts (dog ear) nurtured from patients, between 60 and 80 years old being completely anonymized at the clinic for dermatology, Rostock.
(§4) The cells lines were thawed and were cultured in Dulbeco's modified Eagel's medium (DMEM, Gibcon, USA) supplemented with 10% fetal bovine serum (FBS, Gibco, Germany) and 1% penicillin-streptomycin (PS, Gibco, USA) at 37 °C in a humidified atmosphere with 5% CO2 until a sufficient number of cells were culture in T75 culture bottles. After reaching a confluence of 80% to 90%, the cells were separated using trypsin and counted. Next 100.000 cells were planted in each well of a 6 well plate in replicates, washed and the DMEM solution with 150 µg and 250 µg/ml substance/DMEM and DMEM with no substance as control was added.
(§5) After 48h and after 72h 100 µl supernatant of each well was taken, labelled and frozen at -20° degree Celsius. Prior to perform ELISA the medium was depending on the cell line diluted 1:50 or 1:100 with PBS, otherwise the concentration of collagen fibers was too high to be measured.
(§6) The media containing the secretion of the different human dermal fibroblasts GM637, UKE1, and HRO159N were collected after 48h and 72h treatment. Secretion of pro-collagen 1 was assessed with human pro-collagen I alpha 1 DuoSet ELISA (R&D systems, USA) To prepare the Elisa plate, Human pro-Collagen I a capture antibody was diluted in ELISA plate-coating buffer at 4µg/mL working concentration. 100 µl of diluted Capture antibody was added to 96-well microplates and incubated over night at room temperature. After three times washing with Wash Buffer, microplates were blocked by adding 300 µl of Reagent Diluent for 1 hour at room temperature. To proceed the ELISA Human pro-collagen I α1 Standards were diluted in Reagent Diluent (range between 31,3 pg/mL - 2000 pg/mL) and 100 µl of standards or conditioned mediums were added to designated wells. Microplates were incubated at room temperature for 2 hours. Human Pro-collagen I α1 Detection Antibody was prepared in Reagent Diluent at […] working concentration and 100 µl of diluted Detection Antibody was applied for 2 hours at room temperature after extensive washing. Then, working solution of Streptavidin-HRP with Reagent Diluent was prepared by diluting 1:40 and added into each well. After 20 minutes at room temperature incubation, microplates were washed and applied with 100 µl of Substrate Solution for 20 minutes followed by Stop Solution after washing. Finally, signals were measured at 450 nm absorbance by PHomo Microplate Reader (Autobio, China) The amount of pro-collagen 1 was quantified by extrapolating the signal into a linear range of a pro-collagen 1 standard curve. Screening compounds were typically tested at concentration of 150 and 250 µg/mL. The dose response data for each compound and the different cell lines were obtained by nonlinear regression analysis using Prism 9 software (GraphPad, La Jolla, USA).

UKE1 = assay: ELISA of secreted pro-collagen I alpha 1 (Type I Collagen) from human dermal fibroblasts UKE1
Description: as §1, §2, §3, §4, §5, §6

HRO159N = assay: ELISA of secreted pro-collagen I alpha 1 (Type I Collagen) from human dermal fibroblasts HRO159N; conditions: 250 µg
Description: as §1, §2, §3, §4, §5, §6

MRCVI = assay: ELISA of secreted pro-collagen I alpha 1 (Type I Collagen) from human lung fibroblast MRCVI
Description: as §1, §2
As cell line MRCV1 was used, which is an immortalized cell line originated from human lung fibroblast, bought in 2001.
as §4, with “cell line was” for “cells lines were”, “and” for “and were”
as §5
The medium containing the secretion of the human lung fibroblast MRCVI was collected after 48h and 72h treatment. Secretion of pro-collagen 1 was assessed with human pro-collagen I alpha 1 DuoSet ELISA (R&D systems, USA) To prepare the Elisa plate, Human pro-Collagen I a capture antibody was diluted in ELISA plate-coating buffer at 4µg/mL working concentration. 100 µl of diluted Capture antibody was added to 96-well microplates and incubated over night at room temperature. After three times washing with Wash Buffer, microplates were blocked by adding 300 µl of Reagent Diluent for 1 hour at room temperature. To proceed the ELISA Human pro-collagen I α1 Standards were diluted in Reagent Diluent (range between 31,3 pg/mL - 2000 pg/mL) and 100 µl of standards or conditioned mediums were added to designated wells. Microplates were incubated at room temperature for 2 hours. Human Pro-collagen I α1 Detection Antibody was prepared in Reagent Diluent at […] working concentration and 100 µl of diluted Detection Antibody was applied for 2 hours at room temperature after extensive washing. Then, working solution of Streptavidin-HRP with Reagent Diluent was prepared by diluting 1:40 and added into each well. After 20 minutes at room temperature incubation, microplates were washed and applied with 100 µl of Substrate Solution for 20 minutes followed by Stop Solution after washing. Finally, signals were measured at 450 nm absorbance by PHomo Microplate Reader (Autobio, China) The amount of pro-collagen 1 was quantified by extrapolating the signal into a linear range of a pro-collagen 1 standard curve. Screening compounds were typically tested at concentration of 150 and 250 µg/mL. The dose response data for each compound and the different cell lines were obtained by nonlinear regression analysis using Prism 9 software (GraphPad, La Jolla, USA).

Row | SMILES | collagen reduction percentage in comparison to the standard (100 %) (GM637; 48h, 150 µg) [%] | collagen reduction percentage in comparison to the standard (100 %) (GM637; 48h, 250 µg) [%] | collagen reduction percentage in comparison to the standard (100 %) (GM637; 72 h, 150 µg) [%] | collagen reduction percentage in comparison to the standard (100 %) (GM637; 72 h, 250 µg) [%] | collagen reduction percentage in comparison to the standard (100 %) (UKE1; 48h, 150 µg) [%] | collagen reduction percentage in comparison to the standard (100 %) (UKE1; 48h, 250 µg) [%] | collagen reduction percentage in comparison to the standard (100 %) (UKE1; 72 h, 150 µg) [%] | collagen reduction percentage in comparison to the standard (100 %) (UKE1; 72 h, 250 µg) [%] | collagen reduction percentage in comparison to the standard (100 %) (HRO159N; 48h) [%] | collagen reduction percentage in comparison to the standard (100 %) (HRO159N; 72 h) [%] | collagen reduction percentage in comparison to the standard (100 %) (MRCVI; 48h, 150 µg) [%] | collagen reduction percentage in comparison to the standard (100 %) (MRCVI; 48h, 250 µg) [%] | collagen reduction percentage in comparison to the standard (100 %) (MRCVI; 72 h, 150 µg) [%] | collagen reduction percentage in comparison to the standard (100 %) (MRCVI; 72 h, 250 µg) [%]
1 | c1ccc2c(c1)cnn1nnnc21 [Compound 1, Tetrazolor5,1-alphthalazine] | 127 | 77 | 95 | 92 | 70 | 85 | 74 | 68 | 57 | 72 | 87 | 78 | 74 | 61
2 | COc1nn2c(C)nnc2c2ccccc12 [Compound 3, 6-Methoxy-3-methyl-1,2,4-triazolo[3,4-a]phthalazine] | 89 | 50 | 37 | 32 | 96 | 77 | 71 | 52 | 82 | 77 | 35 | 11 | 17 | 5
3 | FC(F)(F)c1nnc2c3ccccc3cnn12 [Compound 5, 3-Trifluoromethyl-1,2,4-triazolo[3,4-a]phthalazine] | 114 | 89 | 70 | 105 | 107 | 99 | 94 | 62 |  |  | 97 | 107 | 56 | 108
4 | [2H]C([2H])([2H])c1nnc2c3ccccc3cnn12 [Compound 7, 3-D3-Methyl-1,2,4-triazolo[3,4-a]phthalazine] | 101 | 75 | 43 | 30 | 79 | 54 | 44 | 47 | 43 | 33 | 19 | 9 | 14 | 3
5 | c1ccc2c(c1)cnn1cnnc21 [Compound 10, 1,2,4-Triazolo[3,4-a]phthalazine] |  |  |  |  |  |  |  |  |  |  | 67 | 52 | 48 | 25
6 | Cc1nnc2c3cscc3cnn12 [Compound 16, 3-Methylthieno[3,4-d][1,2,4]triazolo[4,3-b]pyridazine] | 79 | 62 | 86 | 55 | 117 | 99 | 82 | 35 | 79 | 48 | 72 | 43 | 82 | 35
7 | Cc1nnc2c3ccc(C(F)(F)F)cc3cnn12 [Compound 36, 3-Methyl-8-(trifluoromethyl)-[1,2,4]triazolo[3,4-a]phthalazine] |  |  |  |  |  |  |  |  |  |  | 64 | 68 | 36 | 22
8 | CC(C)Oc1nn2nnnc2c2c(Cl)cccc12 [Compound 44, 10-chloro-6-isopropoxytetrazolo[5,1-a]phthalazine] | 122 | 89 | 61 | 65 | 122 | 89 | 61 | 65 | 72 | 79 |  |  |  | 
